The test system of the experiment is HeLa. Nature of the experiment: Cytotoxicity against human HeLa cells after 48 hrs by MTT assay. The experiment is classed as functional, cell-based.

SMILES strings stand for the structures.

In general, IC50 refers to the concentration at which inhibition is half-maximal. Low values mean higher potency, high ones lower potency. Compound `CCCCC[C@@H]1OC=C2[C@@H]3OC(C)(C)[C@@H](O)C[C@@]34O[C@H]4C(=O)[C@]23[C@H]1[C@H]1C2=C([C@H]4OC(C)(C)[C@@H](O)C[C@@]45O[C@H]5C2=O)[C@@H]3O[C@@H]1CCCCC` [PESTALOQUINOL A] returned a half-maximal inhibitory concentration (IC50) of 1630 nM. This counts as single-digit micromolar.

Compound `CCCCC[C@@H]1O[C@@H]2C3=C(C(=O)[C@@H]4O[C@@]45C[C@H](O)C(C)(C)O[C@H]35)[C@H]1[C@H]1[C@H](CCCCC)OC=C3[C@@H]4OC(C)(C)[C@@H](O)C[C@@]45O[C@H]5C(=O)[C@@]312` [PESTALOQUINOL B] had a half-maximal inhibitory concentration (IC50) of 880 nM.

These data come from ChEMBL document CHEMBL1687904, “Pestaloquinols A and B, isoprenylated epoxyquinols from Pestalotiopsis sp” (J Nat Prod, 2011).
